Data taken from patent US11618738B2, “Compound and application thereof in treating inflammation or inflammation-related diseases” (SICHUAN CENTER FOR TRANSLATIONAL MEDICINE OF TRADITIONAL …, priority 2017, dated 2023).
pIC50: −log10 of the molar value. Like-named read-outs stand apart in the source and are kept apart here.

Key:
PGE2 induced by LPS = test: Inhibition of LPS-induced PGE2 in RAW 264.7 cells (ELISA); format: cell-based, mice
Experimental: (§1) This example is taken from a previous publication by Song et al.^[1]. In brief, mice RAW 264.7 cells were treated with increasing doses of each test compound at 37° C. for 1 hour. Thereafter, the cells were attacked with 20 μL/well of LPS (equivalent to a final concentration of 100 ng/mL). The cells were further incubated overnight at 37° C. A commercial ELISA assay kit obtained from R&D Systems (Minneapolis, Minn.) was used to determine the level of PGE2 in the supernatant, and three parallel experiments were performed. The optical density of each well was measured using a BioTek Epoch microplate reader (Winooski, Vt.) set to 450 nm. The NO study was performed in a similar manner, but Greiss reagent was used to monitor the level of NO, and the results were read at 550 nm.

[1] = test system: xylene-induced ear swelling in mice; test: Xylene-induced ear swelling in mice; format: in vivo; details: for Swelling rate (%): 20 minutes after xylene, mean ± SD; for ear swelling rate versus normal group (in words): the three dose groups (6.25, 12.5, 25 mg/kg)
Text: Xylene applied to the ears of mice can cause acute inflammatory swelling of the ears of the mice. The anti-inflammatory effects of the tested drugs were observed by the degree of swelling of the ears of the mice after the inflammation.
Taking Kunming mice, SPF grade, half male and half […] (18-22 g/mouse) and randomly grouping them according to body weight. The normal control group was given 0.5% CMC-Na suspension by gavage administration, and the other groups were given corresponding drugs (0.2 ml/10 g) for 3 consecutive days, once a day. 0.5 h after the last administration, 0.02 ml of xylene was applied to the right auricle of each group of mice, and the left side was not applied as a control, establishing a mouse ear swelling model. 20 minutes after the inflammation, the mice were killed by cervical dislocation. Both ears were cut along the baseline of the auricle, and the discs on the same part of the left and right ears were punched out with a punch (6 mm of diameter) and weighed.

[2] = test system: writhing response of mice with acetic acid; test: Writhing response of mice induced by intraperitoneal glacial acetic acid; format: in vivo; details: for Writhing reaction inhibition percentage (%): mean ± SD; for writhing response in mice induced by acetic acid (in words): the four dose groups (25-200 mg/kg)
Experimental: After glacial acetic acid is injected into the abdominal cavity of mice, it can cause inflammatory pain and cause writhing reaction in mice. In this experiment, the analgesic effects of UTLOH compounds were observed by the number of writhing times in mice after intraperitoneal injection of glacial acetic acid.
Taking 100 KM mice, SPF grade, half male and half […] (18-22 g/mouse), and randomly grouping them according to their body weight. Except that the blank control group was given 0.5% CMC-Na suspension by gavage administration, the other groups were given the corresponding drugs by gavage for 3 continuous days, once a day, with a gavage volume of 0.2 ml/10 g. 30 minutes after the administration on the 3rd day, each group of mice was intraperitoneally injected with 0.6% glacial acetic acid, 0.1 ml/10 g, to create writhing reaction model in mice.

NO induced by LPS = test: Inhibition of LPS-induced NO in RAW 264.7 cells (Greiss reagent); format: cell-based, mice; details: for IC50: RAW 264.7 cells, LPS 100 ng/mL, overnight
Text: Nitric oxide (NO) is a signaling molecule that plays a key role in the pathogenesis of inflammation. Under abnormal conditions, NO is a pro-inflammatory mediator that causes inflammation due to its overproduction. Therefore, the regulation of elevated NO levels by stimulants (such as LPS) has been widely used as a screening method to identify anti-inflammatory drugs. Since NO is oxidized into nitrite and nitrate, the determination of total NO2^−/NO3^− is a conventional method for determining NO levels, and Griess reagent is usually used in this type of experiment.
as §1

[3] = test system: 10% egg white-induced foot swelling in rats; test: 10% egg white-induced foot swelling in rats; format: in vivo; details: for Foot swelling: mean ± SD
Text: Injecting 10% egg white into rat paws can cause early acute inflammation such as redness, heat, swelling, and pain in rat paws. In this experiment, the anti-inflammatory effects of UTLOH series compounds were observed by the degree of swelling of the paws of rats after inflammation.
SPF grade SD rats, half female and half male (100-120 g/mouse) were randomly grouped according to body weight. Each group was given the corresponding drugs by gavage, once a day, for 3 consecutive days, with a gavage volume of 1 ml/100 g. Before the experiment, the ankle joint of the right hind foot of each group of rats was marked, and the foot volume of each group of rats was measured twice with a rat foot volume meter, and the average of the two times was taken as the […]. 30 minutes after the last administration, the rats in each group were given a subcutaneous needle in the right hind paw, and injected with 10% fresh egg white solution 0.1 ml/mouse to cause inflammation, establishing a rat model of paw swelling. The post-inflamed foot volume in mice was measured twice at 1 h, 2 h, 3 h, and 4 h after inflammation, and the average of the two times was taken as the post-inflamed foot volume. The normal group was given 1 ml/100 g volume of 0.5% CMC-Na solution by gavage according to body weight.

hot plate pain in mice = test: Hot plate pain threshold in mice; format: in vivo; details: for Percentage increase in pain threshold (%): mean ± SD
Experimental: The hot plate method uses a certain intensity of warm heat to stimulate mice to produce pain reaction. This experiment observes the analgesic effect of UTLOH series compounds.
Female SPF-grade Kunming mice (18-22 g/mouse) were put in a hot plate apparatus at a temperature of 55±0.5° C., and the pain threshold of the mice was measured. The measurement was performed twice, and the measurement was performed every 5 minutes. Taking the mouse licking hind feet as the observation index. The mice with pain response within 30 s were selected as experimental animals. The pre-selected qualified mice were randomly grouped according to their body weight. The blank group was intraperitoneally injected with 0.2 ml/10 g body weight of normal saline, and the other groups were intraperitoneally injected with corresponding drugs. The pain threshold was measured 30 and 60 minutes after the administration. If the mouse had no pain within 60 seconds, it was taken out immediately and calculated at 60 seconds.

[4] = 6.25 mg/kg once a day for 3 days
[5] = 12.5 mg/kg once a day for 3 days
[6] = 25 mg/kg gavage once a day for 3 days
[7] = 50 mg/kg gavage once a day for 3 days
[8] = 100 mg/kg gavage once a day for 3 days
[9] = 200 mg/kg gavage once a day for 3 days
[10] = 10 mg/kg gavage once a day for 3 days, 1 h after inflammation
[11] = 10 mg/kg gavage once a day for 3 days, 2 h after inflammation
[12] = 10 mg/kg gavage once a day for 3 days, 3 h after inflammation
[13] = 10 mg/kg gavage once a day for 3 days, 4 h after inflammation
[14] = 20 mg/kg gavage once a day for 3 days, 1 h after inflammation
[15] = 20 mg/kg gavage once a day for 3 days, 2 h after inflammation
[16] = 20 mg/kg gavage once a day for 3 days, 3 h after inflammation
[17] = 20 mg/kg gavage once a day for 3 days, 4 h after inflammation
[18] = 40 mg/kg gavage once a day for 3 days, 1 h after inflammation
[19] = 40 mg/kg gavage once a day for 3 days, 2 h after inflammation
[20] = 40 mg/kg gavage once a day for 3 days, 3 h after inflammation
[21] = 40 mg/kg gavage once a day for 3 days, 4 h after inflammation
[22] = 25 mg/kg intraperitoneal, 30 min after administration
[23] = 25 mg/kg intraperitoneal, 60 min after administration
[24] = 50 mg/kg intraperitoneal, 30 min after administration
[25] = 100 mg/kg intraperitoneal, 30 min after administration
[26] = 100 mg/kg intraperitoneal, 60 min after administration
[27] = 200 mg/kg intraperitoneal, 30 min after administration
[28] = 200 mg/kg intraperitoneal, 60 min after administration

Row | SMILES | Swelling rate (%) [1, 4] [%] | Swelling rate (%) [1, 5] [%] | Swelling rate (%) ([1]; 25 mg/kg once a day for 3 days) | ear swelling rate versus normal group (in words) [1] | Writhing reaction inhibition percentage (%) [2, 6] [%] | Writhing reaction inhibition percentage (%) [2, 7] [%] | Writhing reaction inhibition percentage (%) [2, 8] [%] | Writhing reaction inhibition percentage (%) [2, 9] [%] | writhing response in mice induced by acetic acid (in words) [2] | Foot swelling [3, 10] [mL] | Foot swelling [3, 11] [mL] | Foot swelling [3, 12] [mL] | Foot swelling [3, 13] [mL] | Foot swelling [3, 14] [mL] | Foot swelling [3, 15] [mL] | Foot swelling [3, 16] [mL] | Foot swelling [3, 17] [mL] | Foot swelling [3, 18] [mL] | Foot swelling [3, 19] [mL] | Foot swelling [3, 20] [mL] | other results
1 | Cc1cc(C(=O)Nc2ccccc2O)no1 [UTLOH-4a] | 49.77 ± 22.15 | 50.59 ± 21.52 | 49.87 ± 16.44 | significantly lower | 21.63 ± 29.24 | 24.26 ± 10.11 | 28.48 ± 15.74 | 23.05 ± 10.08 | significantly inhibit | 0.50 ± 0.08 | 0.79 ± 0.07 | 0.63 ± 0.13 | 0.47 ± 0.13 | 0.55 ± 0.11 | 0.79 ± 0.14 | 0.64 ± 0.15 | 0.48 ± 0.12 | 0.65 ± 0.18 | 0.77 ± 0.11 | 0.57 ± 0.15 | PGE2 inhibition (%) (PGE2 induced by LPS; RAW 264.7 cells, LPS 100 ng/mL, overnight, test concentration not given): 98.5%; inhibition on PGE2 compared to leflunomide (in words) (PGE2 induced by LPS; compared to leflunomide): stronger; IC50 (NO induced by LPS; Mus musculus, RAW264.7, read-out: NO IC50 (μM), class): < 10 µM; IC50 (NO induced by LPS; Mus musculus, RAW264.7, read-out: NO IC50 (μM), value in brackets): 1.4 µM; inhibition of LPS-induced NO compared with leflunomide and teriflunomide (in words) (NO induced by LPS; compared with leflunomide and teriflunomide): more strongly; Foot swelling [3, 21]: 0.48 ± 0.12 mL; foot swelling compared with the normal group (in words) ([3]; low, medium- and high-dose group, 1 h after inflammation): significantly reduce; Percentage increase in pain threshold (%) (hot plate pain in mice; [22]): −15.08 ± 37.87%; Percentage increase in pain threshold (%) (hot plate pain in mice; [23]): −16.76 ± 33.81%; Percentage increase in pain threshold (%) (hot plate pain in mice; [24]): −6.95 ± 41.45%; percentage increase in the pain threshold, hot plate (in words) (hot plate pain in mice; 100 mg/kg and 200 mg/kg, 30 and 60 minutes after administration): significantly reduce; Percentage increase in pain threshold (%) (hot plate pain in mice; [25]): −19.99 ± 38.23 %; Percentage increase in pain threshold (%) (hot plate pain in mice; [26]): −34.23 ± 39.23 %; Percentage increase in pain threshold (%) (hot plate pain in mice; [27]): −30.12 ± 27.69 %; Percentage increase in pain threshold (%) (hot plate pain in mice; [28]): −29.65 ± 24.62 %
2 | Cc1cc(C(=O)Nc2ccc(O)cc2O)no1 [UTLOH-4e] | 53.22 ± 28.01 | 42.98 ± 23.60 | 41.29 ± 21.75 | significantly lower | 36.52 ± 10.08 | 35.63 ± 17.03 | 39.54 ± 15.18 | 30.14 ± 17.18 | significantly inhibit | 0.67 ± 0.15 | 0.66 ± 0.15 | 0.60 ± 0.16 | 0.44 ± 0.07 | 0.69 ± 0.08 | 0.55 ± 0.13 | 0.51 ± 0.09 | 0.38 ± 0.12 | 0.69 ± 0.13 | 0.57 ± 0.17 | 0.49 ± 0.15 | PGE2 inhibition rate (in words) (PGE2 induced by LPS; same experimental method as Table 1): very good; dose dependence of ear swelling rate (in words) ([1]; the higher the dose, the lower the ear swelling rate): good dose-dependent; pIC50 (NO induced by LPS; Mus musculus, RAW264.7, same method as Table 1, given as 10-50 μM, or <10 μM, read-out: IC50 of NO): ≥ 4.30; Foot swelling [3, 21]: 0.45 ± 0.16 mL; foot swelling degree compared with the normal group (in words) ([3]; low-dose group, 1 h after inflammation): significantly reduced; foot swelling degree compared with the normal group (in words) ([3]; medium-dose group and high-dose group, 1 h, 2 h and 3 h after inflammation): significantly reduced; percentage increase in the pain threshold, hot plate (in words) (hot plate pain in mice; 25 mg/kg and 200 mg/kg, 30 minutes after administration): significantly reduce; Percentage increase in pain threshold (%) (hot plate pain in mice; [22]): −17.71 ± 38.50 %; Percentage increase in pain threshold (%) (hot plate pain in mice; [23]): −2.76 ± 34.01%; Percentage increase in pain threshold (%) (hot plate pain in mice; [24]): −3.15 ± 46.73%; Percentage increase in pain threshold (%) (hot plate pain in mice; 50 mg/kg intraperitoneal, 60 min after administration): 8.36 ± 84.14%; Percentage increase in pain threshold (%) (hot plate pain in mice; [25]): 15.50 ± 103.74%; Percentage increase in pain threshold (%) (hot plate pain in mice; [26]): −11.18 ± 85.76%; Percentage increase in pain threshold (%) (hot plate pain in mice; [27]): −28.73 ± 28.36 %; Percentage increase in pain threshold (%) (hot plate pain in mice; [28]): −16.72 ± 40.12%
